Article PMC5196235 (International Journal for Parasitology: Drugs and Drug …, 2016)
Structures can show the parent of a compound that is named as a salt.

Legend:
[1] = target: T1, Asu-ACR-16 receptor (Ascaris suum, UniProt F1KYJ9); experiment: Two-electrode voltage clamp of Asu-ACR-16 expressed in Xenopus oocytes; assay type: cell-based; conditions: for Hill slope (nH): Asu-ACR-16 in Xenopus oocytes, Hill equation fit, mean ± S.E.M., N = 5; for Emax: read-out: maximum response (Imax); for effect at high concentration (response left out of the Hill fit): 30 μM 5-methylnicotine, 100 μM 6-methylnicotine, 300 μM homonicotine, 100 μM (S, R)-anabasine
T1 sequence (F1KYJ9 1-504): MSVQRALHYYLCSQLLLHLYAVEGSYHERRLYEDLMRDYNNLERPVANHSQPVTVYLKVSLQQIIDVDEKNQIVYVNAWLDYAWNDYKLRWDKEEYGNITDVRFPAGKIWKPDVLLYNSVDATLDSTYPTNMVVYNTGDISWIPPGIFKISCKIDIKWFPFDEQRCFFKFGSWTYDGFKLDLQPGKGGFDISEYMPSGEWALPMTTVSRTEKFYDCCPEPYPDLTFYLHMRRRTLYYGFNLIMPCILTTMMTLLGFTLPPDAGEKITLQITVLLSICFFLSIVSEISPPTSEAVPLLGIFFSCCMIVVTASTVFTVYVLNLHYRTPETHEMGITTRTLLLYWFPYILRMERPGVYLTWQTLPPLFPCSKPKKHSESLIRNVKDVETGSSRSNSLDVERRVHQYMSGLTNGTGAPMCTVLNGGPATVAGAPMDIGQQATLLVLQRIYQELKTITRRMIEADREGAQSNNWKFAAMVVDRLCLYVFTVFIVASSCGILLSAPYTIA

[2] = target: T1, Asu-ACR-16 receptor; conditions: ref Abongwa et al., 2016; cited from earlier work

Compound | Hill slope (nH) [1] | sensitivity of the Asu-ACR-16 receptor to the agonist [2] | other results
CN1CCCC1c1ccc(N)nc1.Cl.Cl (stereo not drawn) [6-AN, 5-(1-methyl-pyrrolidin-2-yl)-pyridin-2-ylamine dihydrochloride] | 10.10 ± 0.15 |  | agonist activity on Asu-ACR-16 (inward current) ([1]; derivatives that elicited inward currents at 100 μM were classed as agonists): little agonist activity; Emax [1]: 6.29 ± 0.62%
C[N+]1(C)CCN(c2ccccc2)CC1.[I-] [DMPP, dimethyl-4-phenyllpiperazinium iodide] |  | sensitive | 
CC(=O)OCC[N+](C)(C)C [ACh, acetylcholine] | 2.93 ± 0.13 | sensitive | 
C#Cc1cncc([C@@H]2CCCN2C)c1 [(S)—SIB 1508Y] | 0.94 ± 0.04 |  | Emax [1]: 100 ± 4.36%
CN1CCC[C@H]1c1cccnc1 [(S)-nicotine, (−)-nicotine hydrogen tartrate salt] | 3.39 ± 0.36 | sensitive | 
Cc1cncc(C2CCCN2C)c1 (racemic) [5-methylnicotine, rac-5-methylnicotine] | 2.09 ± 0.14 |  | effect at high concentration (response left out of the Hill fit) [1]: inhibitory effects at high concentrations
(±)-nornicotine | 3.25 ± 0.49 |  | 
anabasine [(S, R)-anabasine] |  |  | effect at high concentration (response left out of the Hill fit) [1]: inhibitory effect
Clc1ccc(C2CC3CCC2N3)cn1 (stereo not drawn) [epibatidine] |  | sensitive | 
O=c1c(Br)ccc2n1C[C@@H]1CNC[C@H]2C1 [3-bromocytisine] |  | sensitive | 
CN1CCC[C@H]1c1cncc(Br)c1 [(S)-5-bromonicotine] | 2.46 ± 0.21 |  | 
O=c1cccc2n1C[C@@H]1CNC[C@H]2C1 [cytisine] |  | sensitive | 
